Reference: patent US20200239530A1, “COMPOUNDS AND METHODS OF MODULATING PROTEIN DEGRADATION” (Vividion Therapeutics, Inc., priority 2017, published 2020)

Key:
Test in all cases: Cysteine liganding, probe competition
Type in all cases: binding
UniProt Q13829 = biological target: T1, UniProt Q13829 (Homo sapiens, UniProt Q13829)
T1 construct: 200 μL of lysate containing 5 mg/ml proteome was treated with 2 μL of 100× compound stock; endogenous in cells
T1 sequence (Q13829 1-316): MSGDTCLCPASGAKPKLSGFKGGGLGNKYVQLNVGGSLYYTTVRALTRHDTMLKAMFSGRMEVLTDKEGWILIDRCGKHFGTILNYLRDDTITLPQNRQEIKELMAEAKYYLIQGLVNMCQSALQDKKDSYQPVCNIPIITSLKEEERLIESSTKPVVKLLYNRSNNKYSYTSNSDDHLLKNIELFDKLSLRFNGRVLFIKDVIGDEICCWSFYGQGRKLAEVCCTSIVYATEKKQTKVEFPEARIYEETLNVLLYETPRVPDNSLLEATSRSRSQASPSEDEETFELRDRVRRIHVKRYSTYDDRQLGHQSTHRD
From the text: (§1) The following 96-well sample prep protocol was used for sample preparation.

UniProt Q7Z6J0 = biological target: T2, UniProt Q7Z6J0 (Homo sapiens, UniProt Q7Z6J0); conditions: for inhibition at 100 µM: read-out: percent_inhibition
T2 construct: 200 μL of lysate containing 5 mg/ml proteome was treated with 2 μL of 100× compound stock; endogenous in cells
T2 sequence (Q7Z6J0 1-888): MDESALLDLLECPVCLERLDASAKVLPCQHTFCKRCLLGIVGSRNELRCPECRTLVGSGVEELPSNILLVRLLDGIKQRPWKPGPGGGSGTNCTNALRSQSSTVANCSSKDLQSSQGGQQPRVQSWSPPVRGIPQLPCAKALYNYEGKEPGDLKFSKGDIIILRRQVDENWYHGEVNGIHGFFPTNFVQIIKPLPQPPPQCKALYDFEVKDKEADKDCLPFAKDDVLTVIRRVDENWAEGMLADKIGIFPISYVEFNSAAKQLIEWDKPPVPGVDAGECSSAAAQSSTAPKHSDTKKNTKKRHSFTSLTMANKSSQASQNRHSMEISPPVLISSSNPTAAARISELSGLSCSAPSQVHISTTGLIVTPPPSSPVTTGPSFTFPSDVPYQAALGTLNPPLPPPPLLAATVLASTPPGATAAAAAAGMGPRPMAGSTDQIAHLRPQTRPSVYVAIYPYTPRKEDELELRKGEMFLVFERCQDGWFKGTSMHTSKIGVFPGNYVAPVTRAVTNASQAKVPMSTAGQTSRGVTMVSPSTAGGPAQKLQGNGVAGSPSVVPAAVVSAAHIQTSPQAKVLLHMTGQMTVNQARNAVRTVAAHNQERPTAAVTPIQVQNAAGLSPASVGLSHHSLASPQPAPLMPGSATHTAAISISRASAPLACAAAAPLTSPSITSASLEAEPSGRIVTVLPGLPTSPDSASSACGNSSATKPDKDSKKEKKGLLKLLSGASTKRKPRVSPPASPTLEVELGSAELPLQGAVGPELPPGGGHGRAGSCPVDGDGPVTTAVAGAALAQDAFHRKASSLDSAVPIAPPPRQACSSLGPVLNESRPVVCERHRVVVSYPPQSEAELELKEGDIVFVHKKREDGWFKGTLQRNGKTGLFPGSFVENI
From the text: as §1

UniProt Q6IQ16 = biological target: T3, UniProt Q6IQ16 (Homo sapiens, UniProt Q6IQ16)
T3 construct: 200 μL of lysate containing 5 mg/ml proteome was treated with 2 μL of 100× compound stock; endogenous in cells
T3 sequence (Q6IQ16 1-392): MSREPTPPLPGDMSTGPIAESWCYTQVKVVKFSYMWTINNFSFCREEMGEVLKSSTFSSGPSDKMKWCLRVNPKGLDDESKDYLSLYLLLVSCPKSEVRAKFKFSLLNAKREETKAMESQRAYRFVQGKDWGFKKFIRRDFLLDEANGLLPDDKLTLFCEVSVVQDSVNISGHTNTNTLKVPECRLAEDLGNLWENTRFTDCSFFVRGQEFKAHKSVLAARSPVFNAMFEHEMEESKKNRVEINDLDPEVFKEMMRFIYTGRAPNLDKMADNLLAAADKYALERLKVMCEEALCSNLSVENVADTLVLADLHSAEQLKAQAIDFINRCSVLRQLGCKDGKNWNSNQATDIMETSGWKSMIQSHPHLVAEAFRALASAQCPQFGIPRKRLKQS
From the text: as §1

UniProt P78317 = biological target: T4, UniProt P78317 (Homo sapiens, UniProt P78317)
T4 construct: 200 μL of lysate containing 5 mg/ml proteome was treated with 2 μL of 100× compound stock; endogenous in cells
T4 sequence (P78317 whole entry, change not shown): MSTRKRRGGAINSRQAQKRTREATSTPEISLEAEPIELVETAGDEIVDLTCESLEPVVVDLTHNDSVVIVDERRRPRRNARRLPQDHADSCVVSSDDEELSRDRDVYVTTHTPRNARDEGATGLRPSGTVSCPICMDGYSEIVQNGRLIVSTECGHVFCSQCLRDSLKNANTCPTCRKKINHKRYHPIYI
From the text: as §1

UniProt Q9NPC7 = biological target: T5, UniProt Q9NPC7 (Homo sapiens, UniProt Q9NPC7)
T5 construct: Cells were resuspended in cold PBS on ice and sonicated with a probe sonicator to achieve lysis; endogenous in cells
T5 sequence (Q9NPC7 1-610): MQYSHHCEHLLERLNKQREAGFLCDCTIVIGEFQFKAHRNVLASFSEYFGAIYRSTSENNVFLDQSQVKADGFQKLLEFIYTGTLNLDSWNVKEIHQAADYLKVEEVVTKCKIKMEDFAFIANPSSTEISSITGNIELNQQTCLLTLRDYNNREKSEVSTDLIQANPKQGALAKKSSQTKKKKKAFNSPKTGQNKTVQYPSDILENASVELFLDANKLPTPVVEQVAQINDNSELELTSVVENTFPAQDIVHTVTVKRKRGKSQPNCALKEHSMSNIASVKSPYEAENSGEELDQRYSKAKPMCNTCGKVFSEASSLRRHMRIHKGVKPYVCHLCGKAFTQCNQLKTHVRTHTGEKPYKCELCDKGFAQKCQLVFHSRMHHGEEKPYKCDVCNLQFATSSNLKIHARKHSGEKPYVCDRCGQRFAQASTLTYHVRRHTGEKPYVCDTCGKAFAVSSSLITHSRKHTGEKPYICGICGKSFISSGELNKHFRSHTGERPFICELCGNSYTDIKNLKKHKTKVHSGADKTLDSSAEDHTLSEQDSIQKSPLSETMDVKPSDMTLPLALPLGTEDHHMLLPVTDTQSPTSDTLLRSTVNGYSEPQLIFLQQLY
From the text: as §1

UniProt O96028 = biological target: T6, UniProt O96028 (Homo sapiens, UniProt O96028); conditions: 500 uM
T6 construct: Cells were resuspended in cold PBS on ice and sonicated with a probe sonicator to achieve lysis; endogenous in cells
T6 sequence (O96028 whole entry, change not shown): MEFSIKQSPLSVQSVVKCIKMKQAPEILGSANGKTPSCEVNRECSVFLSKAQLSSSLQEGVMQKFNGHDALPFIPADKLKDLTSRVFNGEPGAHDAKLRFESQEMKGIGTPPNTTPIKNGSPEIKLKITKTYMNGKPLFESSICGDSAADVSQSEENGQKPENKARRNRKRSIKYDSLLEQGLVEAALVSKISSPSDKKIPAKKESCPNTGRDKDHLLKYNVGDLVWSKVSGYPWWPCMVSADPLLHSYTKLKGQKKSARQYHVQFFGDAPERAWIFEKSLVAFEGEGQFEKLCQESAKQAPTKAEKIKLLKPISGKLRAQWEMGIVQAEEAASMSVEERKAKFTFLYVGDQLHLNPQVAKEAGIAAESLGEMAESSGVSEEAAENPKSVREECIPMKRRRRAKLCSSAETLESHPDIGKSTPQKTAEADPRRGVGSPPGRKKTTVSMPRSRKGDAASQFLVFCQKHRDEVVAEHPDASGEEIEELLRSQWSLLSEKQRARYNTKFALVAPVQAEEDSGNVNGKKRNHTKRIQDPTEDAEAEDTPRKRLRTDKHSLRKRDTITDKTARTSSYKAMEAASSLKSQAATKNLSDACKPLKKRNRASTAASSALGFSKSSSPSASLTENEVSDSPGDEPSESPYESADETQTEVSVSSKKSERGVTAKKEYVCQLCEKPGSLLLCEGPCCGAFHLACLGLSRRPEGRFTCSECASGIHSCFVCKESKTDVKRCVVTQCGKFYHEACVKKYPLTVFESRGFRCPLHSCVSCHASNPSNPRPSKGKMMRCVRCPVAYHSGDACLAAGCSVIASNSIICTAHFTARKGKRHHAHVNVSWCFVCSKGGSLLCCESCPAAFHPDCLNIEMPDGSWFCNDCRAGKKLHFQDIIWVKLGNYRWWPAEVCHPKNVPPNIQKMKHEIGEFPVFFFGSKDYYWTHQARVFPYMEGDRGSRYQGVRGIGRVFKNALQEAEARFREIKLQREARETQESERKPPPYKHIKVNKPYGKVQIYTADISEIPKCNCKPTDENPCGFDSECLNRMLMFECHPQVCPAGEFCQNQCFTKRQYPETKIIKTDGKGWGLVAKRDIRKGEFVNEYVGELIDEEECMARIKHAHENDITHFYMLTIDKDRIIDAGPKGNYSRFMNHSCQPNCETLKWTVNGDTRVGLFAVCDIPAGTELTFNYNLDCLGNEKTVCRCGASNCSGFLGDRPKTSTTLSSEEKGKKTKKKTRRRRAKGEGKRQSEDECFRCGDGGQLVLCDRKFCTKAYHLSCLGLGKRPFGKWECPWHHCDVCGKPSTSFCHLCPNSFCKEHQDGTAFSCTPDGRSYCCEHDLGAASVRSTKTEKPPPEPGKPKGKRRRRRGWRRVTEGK
From the text: as §1

UniProt O94972 = biological target: T7, UniProt O94972 (Homo sapiens, UniProt O94972)
T7 construct: 200 μL of lysate containing 5 mg/ml proteome was treated with 2 μL of 100× compound stock; endogenous in cells
T7 sequence (O94972 whole entry, change not shown): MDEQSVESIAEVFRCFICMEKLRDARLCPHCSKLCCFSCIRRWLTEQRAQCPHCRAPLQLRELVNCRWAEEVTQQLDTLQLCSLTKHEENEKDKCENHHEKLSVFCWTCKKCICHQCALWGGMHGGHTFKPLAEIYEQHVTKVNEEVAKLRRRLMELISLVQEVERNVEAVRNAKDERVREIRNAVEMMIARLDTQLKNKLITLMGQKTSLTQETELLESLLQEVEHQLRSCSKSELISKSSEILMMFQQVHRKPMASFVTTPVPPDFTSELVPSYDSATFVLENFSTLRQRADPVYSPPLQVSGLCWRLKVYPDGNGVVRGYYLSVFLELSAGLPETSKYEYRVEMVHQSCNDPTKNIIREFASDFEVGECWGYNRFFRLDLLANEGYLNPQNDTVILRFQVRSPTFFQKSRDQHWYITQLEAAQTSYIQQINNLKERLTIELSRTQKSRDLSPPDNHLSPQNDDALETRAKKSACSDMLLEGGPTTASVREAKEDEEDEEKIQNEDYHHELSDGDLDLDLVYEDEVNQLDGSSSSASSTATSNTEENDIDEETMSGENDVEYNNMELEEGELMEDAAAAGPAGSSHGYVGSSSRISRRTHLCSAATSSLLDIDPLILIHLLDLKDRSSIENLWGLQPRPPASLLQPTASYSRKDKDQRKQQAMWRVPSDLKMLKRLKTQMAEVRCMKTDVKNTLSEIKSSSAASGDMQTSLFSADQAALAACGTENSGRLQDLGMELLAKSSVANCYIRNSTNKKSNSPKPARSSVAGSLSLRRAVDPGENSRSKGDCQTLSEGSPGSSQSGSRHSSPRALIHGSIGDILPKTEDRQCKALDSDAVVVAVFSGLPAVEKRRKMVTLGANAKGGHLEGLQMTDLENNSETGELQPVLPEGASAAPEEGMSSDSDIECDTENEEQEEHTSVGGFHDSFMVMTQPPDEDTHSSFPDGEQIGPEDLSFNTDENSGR
From the text: as §1

UniProt P36406 = biological target: T8, UniProt P36406 (Homo sapiens, UniProt P36406)
T8 construct: 200 μL of lysate containing 5 mg/ml proteome was treated with 2 μL of 100× compound stock; endogenous in cells
T8 sequence (P36406 whole entry, change not shown): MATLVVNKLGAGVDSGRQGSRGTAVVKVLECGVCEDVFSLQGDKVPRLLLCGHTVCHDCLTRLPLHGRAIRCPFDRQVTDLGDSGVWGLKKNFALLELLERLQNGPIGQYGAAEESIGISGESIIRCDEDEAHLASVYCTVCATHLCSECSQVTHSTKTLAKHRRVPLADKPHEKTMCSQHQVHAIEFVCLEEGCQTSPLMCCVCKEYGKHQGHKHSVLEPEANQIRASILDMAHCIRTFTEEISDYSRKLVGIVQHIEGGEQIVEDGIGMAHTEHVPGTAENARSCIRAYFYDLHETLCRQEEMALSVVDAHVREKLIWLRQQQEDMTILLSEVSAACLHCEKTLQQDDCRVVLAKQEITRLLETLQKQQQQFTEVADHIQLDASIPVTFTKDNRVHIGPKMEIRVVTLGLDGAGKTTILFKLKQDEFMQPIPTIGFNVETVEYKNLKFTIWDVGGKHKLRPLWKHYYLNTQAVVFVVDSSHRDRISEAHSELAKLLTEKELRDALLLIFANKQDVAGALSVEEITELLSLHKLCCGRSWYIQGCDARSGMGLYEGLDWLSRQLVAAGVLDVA
From the text: as §1

[1] = 100 uM, read-out: percent_inhibition
[2] = 500 uM, read-out: percent_inhibition

Row | Structure (SMILES) | percent_inhibition (UniProt Q13829; 100 uM) | inhibition at 100 µM (UniProt Q13829; [1]) | percent_inhibition (UniProt Q13829; 500 uM) | inhibition at 500 µM (UniProt Q13829; [2]) | inhibition at 100 µM (UniProt Q7Z6J0) | inhibition at 100 µM (UniProt Q6IQ16; read-out: percent_inhibition) | inhibition at 500 µM (UniProt P78317; [2]) | percent_inhibition (UniProt Q7Z6J0; 100 uM) | percent_inhibition (UniProt Q6IQ16; 500 uM) | inhibition at 500 µM (UniProt Q6IQ16; [2]) | inhibition at 100 µM (UniProt Q9NPC7; 100 uM, read-out: percent inhibition) | inhibition at 500 µM (UniProt Q9NPC7; 500 uM, read-out: percent inhibition) | KB05_500 uM_percent_inhibition (UniProt O96028) | inhibition at 100 µM (UniProt O94972; read-out: KB05_100 uM_percent_inhibition) | inhibition at 500 µM (UniProt P36406; read-out: KB05_500 uM_percent_inhibition) | percent_inhibition (UniProt P78317; 100 uM) | percent inhibition (UniProt Q9NPC7; 100 uM) | KB03_500 uM_percent_inhibition (UniProt O96028) | KB03_100 uM_percent_inhibition (UniProt O94972; 100 uM) | KB03_500 uM_percent_inhibition (UniProt P36406; 500 uM)
1 | COc1ccc2c(c1)CCCN2C(=O)CCl [KB02] | 4% | 8% | 9% | 15% | 42% | 16% |  |  |  |  |  |  |  |  |  |  |  |  |  | 
2 | C=CC(=O)N(c1ccccc1)c1ccc(Br)cc1 [KB05] |  | 7% |  |  | 3% | 20% | 24% | 4% | 57% | 44% | 1% | 58% | 79% | 18% | 61% |  |  |  |  | 
3 | O=C(CCl)Nc1cc(C(F)(F)F)cc(C(F)(F)F)c1 [KBO3] |  |  |  |  |  |  |  |  |  |  |  |  |  |  |  | 16% | 30% | 78% | 36% | 17%
